Reference: patent US6635802B1, “Nuclear transfer using cells cultured in serum starvation media containing apoptosis inhibitors” (The Texas A&M University System, priority 2000, dated 2003)

B1: α2-macroglobulin (protein, UniProt P01023 24-1474, looked up)
Alpha-2-macroglobulin: SVSGKPQYMVLVPSLLHTETTEKGCVLLSYLNETVTVSASLESVRGNRSLFTDLEAENDVLHCVAFAVPKSSSNEEVMFLTVQVKGPTQEFKKRTTVMVKNEDSLVFVQTDKSIYKPGQTVKFRVVSMDENFHPLNELIPLVYIQDPKGNRIAQWQSFQLEGGLKQFSFPLSSEPFQGSYKVVVQKKSGGRTEHPFTVEEFVLPKFEVQVTVPKIITILEEEMNVSVCGLYTYGKPVPGHVTVSICRKYSDASDCHGEDSQAFCEKFSGQLNSHGCFYQQVKTKVFQLKRKEYEMKLHTEAQIQEEGTVVELTGRQSSEITRTITKLSFVKVDSHFRQGIPFFGQVRLVDGKGVPIPNKVIFIRGNEANYYSNATTDEHGLVQFSINTTNVMGTSLTVRVNYKDRSPCYGYQWVSEEHEEAHHTAYLVFSPSKSFVHLEPMSHELPCGHTQTVQAHYILNGGTLLGLKKLSFYYLIMAKGGIVRTGTHGLLVKQEDMKGHFSISIPVKSDIAPVARLLIYAVLPTGDVIGDSAKYDVENCLANKVDLSFSPSQSLPASHAHLRVTAAPQSVCALRAVDQSVLLMKPDAELSASSVYNLLPEKDLTGFPGPLNDQDNEDCINRHNVYINGITYTPVSSTNEKDMYSFLEDMGLKAFTNSKIRKPKMCPQLQQYEMHGPEGLRVGFYESDVMGRGHARLVHVEEPHTETVRKYFPETWIWDLVVVNSAGVAEVGVTVPDTITEWKAGAFCLSEDAGLGISSTASLRAFQPFFVELTMPYSVIRGEAFTLKATVLNYLPKCIRVSVQLEASPAFLAVPVEKEQAPHCICANGRQTVSWAVTPKSLGNVNFTVSAEALESQELCGTEVPSVPEHGRKDTVIKPLLVEPEGLEKETTFNSLLCPSGGEVSEELSLKLPPNVVEESARASVSVLGDILGSAMQNTQNLLQMPYGCGEQNMVLFAPNIYVLDYLNETQQLTPEIKSKAIGYLNTGYQRQLNYKHYDGSYSTFGERYGRNQGNTWLTAFVLKTFAQARAYIFIDEAHITQALIWLSQRQKDNGCFRSSGSLLNNAIKGGVEDEVTLSAYITIALLEIPLTVTHPVVRNALFCLESAWKTAQEGDHGSHVYTKALLAYAFALAGNQDKRKEVLKSLNEEAVKKDNSVHWERPQKPKAPVGHFYEPQAPSAEVEMTSYVLLAYLTAQPAPTSEDLTSATNIVKWITKQQNAQGGFSSTQDTVVALHALSKYGAATFTRTGKAAQVTIQSSGTFSSKFQVDNNNRLLLQQVSLPELPGEYSMKVTGEGCVYLQTSLKYNILPEKEEFPFALGVQTLPQTCDEPKAHTSFQISLSVSYTGSRSASNMAIVDVKMVSGFIPLKPTVKMLERSNHVSRTEVSSNHVLIYLDKVSNQTLSLFFTVLQDVPVRDLKPAIVKVYDYYETDEFAIAEYNAPCSKDLGNA

What was measured:
Type in all cases: cell-based
porcine PGCs [1] = test: Porcine PGCs plated in chambered slides in the absence of feeder layers, with or without growth factors; AP-positive cells counted; details: for Number of PGCs surviving in culture, in words: absence of feeder layers, 24, 48, 72 hours
Protocol: FIG. 8. Freshly isolated PGCs were plated in chambered slides in the absence of feeder cells and incubated in media with no protease inhibitors or antioxidants (PES), with MAC (MAC) or with NAC (NAC), either with or without growth factors (G), for 24, 48 or 72 hours. Cells were fixed, stained for alkaline phosphatase (AP) as previously described, and counted (normalized to control; left vertical axis).
After culture, colonies were stained, counted and analyzed as described above. To determine the effects of MAC and NAC on porcine PGCs, cells were exposed to those inhibitors during the first half period of culture (4-5 days) or the last half period (4-5 days), respectively. In addition, to determine the effect of MAC and NAC in the absence of feeders, cells were plated on chambered slides previously coated with 0.1% gelatin and medium with or without inhibitors in the presence or absence of growth factors. Cells were fixed, stained for AP and counted at the interval of 24, 48, and 72 hours.
Freshly isolated PGCs were plated in chambered slides in the absence of feeders and incubated in media with or without growth factors (GF) and with or without MAC and NAC. Cells were fixed, stained for AP as previously described, and counted.

[2] = test system: Bovine embryonic fibroblasts (BEF); test: Cell cycle distribution (propidium iodide flow cytometry) of serum starved bovine embryonic fibroblasts; details: for Proportion of cells going into G0, in words: addition during the starvation period; for G2/M (%) / S (%): serum starvation 5 days; for G2/M (%) / S (%) / G0/G1 (%): MAC 0.7 pM, NAC 1 mM, GSH 2 mM; for G0/G1 (%): serum starvation (0.5% FBS) 5 days
Protocol: (§1) Bovine embryonic fibroblasts (BEF) were isolated from the fetus with 3-5 cm crown-rump length. After two or three passages, cells were plated one million cells per plate (100 mm) with growth medium (DMEM) with 2 mM L-glutamine, 0.1 mM β-mercaptoethanol and 10% FBS. After 24 hours, cells were washed with PBS 3-5 times and then serum starvation medium with 0.5% FBS was added. In addition, cells were treated with serum starvation medium containing apoptosis inhibitors such as a2-macroglobulin (0.7 pM), N-acetylcysteine (1 mM) and glutathione (2 mM). Cells were treated with serum starvation with or without apoptosis inhibitors for 5 or 10 days. Then cells were trypsinized and counted.
(§2) Cells (1×10^6) were washed in 0.15 M NaCI, fixed in 70% ethanol, and stored at −20° C. overnight or until ready to be analyzed. For analysis, cells were centrifuged, rinsed with PBS, resuspended in 500 μl of a 0.05 mg/ml propidium iodide/0.1% Triton X-100/0.2 mg/ml RNase A solution, and incubated for a minimum of 30 minutes at room temperature in the dark. Cells were analyzed by flow cytometry to determine DNA content. Modfit LT™ (Verity Software House, Topsham, Me.) was used to model the cell cycle distribution within each sample.

[3] = test system: Bovine embryonic fibroblasts (BEF); test: TUNEL assay (flow cytometry) of serum starved bovine embryonic fibroblasts; details: MAC 0.7 pM, NAC 1 mM, GSH 2 mM; for 5-day Apoptosis (%): serum starvation 5 days, serum starved without inhibitor 15.0; for 10-day Apoptosis (%): serum starvation 10 days, serum starved without inhibitor 20.4
Protocol: as §1
After counting, cells were fixed and stained according to protocols with the APO-BRDU kit (Phoenix Flow Systems, San Diego, Calif.). Briefly, cells were fixed in 1% paraformaldehyde in PBS on ice for 15 minutes, washed in PBS, and fixed in 70% ethanol and stored at −20° C. until use. After removing the fixative, cells were washed twice and suspended in 50 μl of labeling solution containing Br-dUTP (bromolated deoxyuridine triphosphate) and TdT (terminal deoxynucleotidyl transferase) for 60 minutes at 37° C. TdT catalyzes the addition of Br-dUTP to the 3′-OH ends of DNA strand breaks in a template independent manner. To determine base line fluorescence, control cells were incubated without TdT. After rinsing, cells were incubated with an anti-BrdU monoclonal antibody conjugated to fluorescein for 30 minutes in the dark at room temperature; apoptotic cells which contain many free 3′-OH ends are intensely labeled, while non-apoptotic cells whose DNA is largely intact have little Br-dUTP incorporation and remain unlabeled. Following counterstaining with a propidium iodide/RNase A solution for 30 minutes in the dark, which allows simultaneous analysis of cell cycle position and apoptosis, cells were analyzed on a FACSCalibur™ flow cytometer (Becton Dickinson, San Jose, Calif.). Fluorescence emissions were measured at 582±21 nm for propidium iodide and 530±15 nm for fluorescein, without spectral compensation, after excitation at 488 nm by an argon-ion laser. For analysis, gates were set so that less than 2% of samples incubated without TdT were positive. Any event above this gate was deemed TUNEL positive for samples incubated with TdT.

[4] = test system: Porcine embryonic fibroblast (PEF); test: Cell cycle distribution (propidium iodide flow cytometry) of serum starved porcine embryonic fibroblasts; details: for Proportion of cells going into G0, in words: addition during the starvation period; for G0/G1 (%) / G2/M (%) / S (%): serum starvation 5 days, MAC 0.7 pM, NAC 1 mM, GSH 2 mM
Excerpt: Porcine embryonic fibroblast (PEF) were isolated from day 25-28 fetuses according to the methods previously described (Hogan et al., 1994). Briefly, porcine fetuses of day 25-30 (day 0=estrus) were removed from the uterus and rinsed with PBS+penicillin/streptomycin solution (PBS/PS). Head, limbs and internal organs were removed, and the carcasses were minced with razor blades or ground using a syringe head until they were the consistency of sludge. Then these were trypsinized 2-3 times using 0.25% trypsin+EDTA for 20 minutes. The supernatant fraction was removed and centrifuged to collect the cells. The cells were plated using DMEM+10% fetal bovine serum (FBS) and cultured up to 80-90% confluency before further passage.
as §1, §2

mouse ES cells = test: Culture of mouse ES cells with NAC
porcine PGCs [5] = test: In vitro culture of porcine PGCs on STO feeder cells with apoptosis inhibitors; AP-stained colonies counted
[6] = Table 3 combined effects study: MAC 0.7 pM, NAC 1.0 mM, alone or together, normalized to control

Row | Molecule | Rescue of PGCs, in words (porcine PGCs [1]; absence of feeder layers and of growth factors, after 72 hr of culture) | Number of PGCs surviving in culture, in words (porcine PGCs [1]) | Proportion of cells going into G0, in words [2] | G2/M (%) [2] [%] | S (%) [2] [%] | G0/G1 (%) [2] [%] | 5-day Apoptosis (%) [3] [%] | 10-day Apoptosis (%) [3] [%] | Proportion of cells going into G0, in words [4] | G0/G1 (%) [4] [%] | G2/M (%) [4] [%] | S (%) [4] [%] | % viable cells, in words (mouse ES cells; in the presence of NAC) | Effect on mouse ES cells, in words (mouse ES cells; normal culture conditions and absence of BME) | Normalized # of Colonies + SE (porcine PGCs [5]; [6]) | Normalized # of Colonies + SE (porcine PGCs [5]; MAC (0.7 pM) 1-4 days (FH), Table 4 timing study) | Normalized # of Colonies + SE (porcine PGCs [5]; MAC (0.7 pM) 5-8 days (LH), Table 4 timing study) | Normalized # of Colonies + SE (porcine PGCs [5]; Table 6 protease inhibitors: MAC 0.7 pM, PA 50 μM, AEBSF 250 μM, TLCK 100 μM, normalized to control)
1 | CC(=O)N[C@@H](CS)C(=O)O [NAC, N-acetylcysteine] | able to rescue the PGCs | increased the number of PGCs surviving in culture | did not affect the proportion of cells going into G0 | 10 | 2 | 88 | 1.8 | 1.1 | did not affect the proportion of cells going into G0 | 95 | 3 | 2 | not greatly affected | beneficial effect | 2.73 ± 0.03 | – | – | –
2 | B1 | – | increased the number of PGCs surviving in culture | did not affect the proportion of cells going into G0 | 10 | 5 | 85 | 3.9 | 4.6 | did not affect the proportion of cells going into G0 | 95 | 4 | 1 | – | – | 2.00 ± 0.18 | 1.21 ± 0.05 | 1.23 ± 0.09 | 1.72 ± 0.15
